Source: US8193156B1, “Dipeptides incorporating selenoamino acids with enhanced bioavailability—synthesis, pharmaceutical and cosmeceutical applications thereof” (Sami Labs Ltd, priority 2006, dated 2012)

Columns and labels:
[1] = Aqueous solubility measurements; format: physicochemical; settings: for Aqueous solubility: in water
Source text: Aqueous solubility measurements were done on L-Se-methylselenocysteine and γ-L-glutamyl-L-Se-methylselenocysteine; The solubility of L-Se-methylselenocysteine was ca. 10% with dissolution occurring in two hours in water.

Row | Structure (SMILES) | melting point | Time for dissolution in water [1] | Aqueous solubility [1]
1 | C[Se]CC[C@H](NC(=O)CC[C@H](N)C(=O)O)C(=O)O | 192 to 194 °C | – | –
2 | C[Se]C[C@H](N)C(=O)O [L-Se-methylselenocysteine, reference compound] | – | two hours | ca. 10%
3 | C[Se]C[C@H](NC(=O)CC[C@H](N)C(=O)O)C(=O)O [γ-L-glutamyl-L-Se-methylselenocysteine, γ-L-glutamyl-Se-methyl-L-selenocysteine] | 159 to 161 °C | thirty minutes | ca. 25%
